Experimental data reported in patent US20160000852A1, “NUTRIENT COMBINATIONS FOR AFFECTING AN AGING PROCESS” (BioMarker Pharmaceuticals, Inc., priority 2013, published 2016).

Key:
Type in all cases: in vivo
D-gal exposed mice [1] = assay: Coordination test with the Rota-Rod; conditions: 12 animals
Procedure: FIG. 2 illustrates a coordination test with the Rota-Rod. In addition, latency to fall was tested. Values are mean ±SEM of 12 animals.

[2] = tested on: complex I in gastrocnemius mitochondria; assay: Complex I activity in gastrocnemius mitochondria; conditions: D-gal exposed mice; n=12
Procedure: In view of the abnormal mitochondrial morphology in the skeletal muscle of the D-gal treated mice, the activities of some key enzymes in the electron transport chain (ETC) and the tricarboxylic acid (TCA) cycle were further examined.
(§1) FIG. 7 illustrates the effects of Formulas A-C on the activity of complex I in gastrocnemius and heart mitochondria. Activities of complex I of gastrocnemius (n=12) and heart (n=11) in all groups were assayed. All values are expressed as means ±SEM. **P<0.01 versus Normal group, ^#P<0.05 versus D-gal group, ^##P<0.01 versus D-gal group.

[3] = tested on: complex I in heart mitochondria; assay: Complex I activity in heart mitochondria; conditions: D-gal exposed mice; n=11
Procedure: The activity of complex I was also assayed in several other tissues, such as liver, heart, and brain. FIG. 6 illustrates activities of complex I in mitochondria from multiple tissues. As is illustrated by the results shown in FIG. 6, D-gal administration impairs the activity of complex I in gastrocnemius. Values are means ±SEM of 12 mice in gastroanemius, 11 mice in heart and 12 mice in brain and liver. **P<0.01 versus Normal group.
as §1

[4] = tested on: mitochondria of gastrocnemius muscle; assay: Transmission electron microscopy of gastrocnemius muscle mitochondria; conditions: D-gal exposed mice
Description: To understand the grip strength loss caused by D-gal exposure, the morphology of mice gastrocnemius muscles were further evaluated with transmission electron microscopy. FIGS. 4A-4E illustrate the transmission electron microscopy results of the gastrocnemius muscle. In particular, FIG. 4A illustrates the transmission electron microscopy for the control group of subjects (i.e. mice), FIG. 4B illustrates the transmission electron microscopy for the D-gal group, FIG. 4C illustrates the transmission electron microscopy for the Formula A group, FIG. 4D illustrates the transmission electron microscopy for the Formula B group, FIG. 4E illustrates the transmission electron microscopy for the Formula C group. A magnified view of the upper panels in FIGS. 4A-4E are shown in the lower panels.

D-gal exposed mice [5] = assay: Spatial memory test with the Morris Water Maze (MWM); conditions: D-gal exposure 125 mg/kg/d, 8 weeks; 12 animals
Description: The Morris Walter Maze (MWM) was applied to measure cognitive deficiencies in D-gal exposed mice. […] In particular, FIG. 1A illustrates the latency time for finding a platform of control subjects, D-gal subjects and subjects administered Formulas A-C over a period of training days. The subjects, in this case, were mice. Values are illustrated as mean ±SEM of 12 animals. […] In addition, FIG. 1B illustrates the latency distance to the platform of control subjects, D-gal subjects and subjects administered Formulas A-C over the same period of training days as illustrated in FIG. 1A.

D-gal exposed mice [6] = assay: Grip strength test (forelimb); conditions: 12 mice
Procedure: It should further be understood that a decrease in strength is a reliable indicator of the aging process. In this aspect, the rodent grip strength test is a putative measure of muscular strength and has been previously used to screen for neuromuscular function. FIG. 3 illustrates the results of a grip strength test. In particular, grip strength of forelimb was tested. Values are means ±SEM of 12 mice. **P<0.01 versus Normal group, ^##P<0.01 versus D-gal group, ^###P<0.001 versus D-gal group.

For O=C[C@H](O)[C@@H](O)[C@@H](O)[C@H](O)CO [D-gal, D-galactose], the “motor coordination (latency to fall) in Rota-Rod test” value (D-gal exposed mice [1]) was “No difference in latency time”, the “complex I activity in gastrocnemius (skeletal muscle) mitochondria” value [2] was “only complex I activity was impaired” and the “complex I activity in heart mitochondria” value [3] was “marginal decrease in heart muscle”. The “mitochondrial morphology in gastrocnemius muscle” value [4] was “swollen and elongated mitochondria with obvious cristae disruption”, the “spatial memory (latency time and latency distance to platform) in MWM” value (D-gal exposed mice [5]) was “did not affect the escape latency or swimming distance” and the “grip strength of forelimb” value (D-gal exposed mice [6]) was “significantly weaker grip strength”.
